Values of other authors as cited in patent US11931454B2, “Wet-packed soft hydrogel ocular inserts” (Alcon Inc., priority 2019, dated 2024).

Details: arylboronic acid group of the monomer

Compound	pKa
3-(meth)acrylamidophenylboronic acid	~8.2
4-(1,6-Dioxo-2,5-diaza-7-oxamyl)phenylboronic acid	~7.8
C=Cc1ccc(CN(C)C)c(B(O)O)c1 [2-Dimethylaminomethyl-5-vinylphenylboronic acid]	< 7.8
C=CCCS(=O)(=O)c1ccc(B(O)O)cc1 [4-(3-Butenylsulfonyl)phenylboronic acid]	~7.1
C=CCNS(=O)(=O)c1ccc(B(O)O)cc1 [4-(N-allylsulfamoyl)phenylboronic acid]	~7.4
